Data from patent EP1981504B1, “THIADIAZOLE DERIVATIVES FOR THE TREATMENT OF NEURO DEGENERATIVE DISEASES” (NV reMYND, priority 2006, dated 2007).
Converted amounts (≈) assume the structure as drawn.

Tested on: M17-SYNwt cells
Assay: α-synuclein cytotoxicity assay (LDH leakage from paraquat-treated α-synuclein over-expressing neuroblastoma cells)
Assay type: cell-based, human
Details: for %I: percent inhibition of synuclein cytotoxicity at most effective concentration of test compound, relative to untreated paraquat cells; for %I / EC50 / EC50 (µg/mL): paraquat 32 mM, 40 hours, LDH release; for EC50: Homo sapiens, Neuroblastoma cell; for EC50 / EC50 (µg/mL): 10 point curves in duplicate
In short: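 M17 neuroblastoma cells over-expressing wild-type α-synuclein were challenged with paraquat, and cytotoxicity was read as LDH release. Protection was expressed as percent reduction of paraquat-induced LDH release relative to untreated paraquat cells and control cells. Actives were retested in 10-point duplicate dose responses.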

| Compound | %I [%] | EC50 [µg/mL] | LDH activity in the medium (Figure 2, dose response in paraquat-treated M17-SYNwt cells) | EC50 (µg/mL) |
| --- | --- | --- | --- | --- |
| COc1cc(NC(=O)N2CCN(c3nc(Cc4ccc(F)cc4)ns3)CC2C)cc(OC)c1 (centres unmarked) [Compound 29, N-(3,5-dimethoxyphenyl)-4-[3-(4-fluorobenzyl)-1,2,4-thiadiazol-5-yl]-2-methylpiperazine-1-carboxamide] | 51 | – | – | – |
| Fc1ccc(Cc2nsc(N3CCN(Cc4ccccc4)CC3)n2)cc1 [Compound 113, 1-benzyl-4-[3-(4-fluorobenzyl)-1,2,4-thiadiazol-5-yl]piperazine] | 65 | 1.54 (≈ 4.18 µM) | – | – |
| Cc1ccc(Cc2nsc(N3CCN(S(=O)(=O)c4cccc5ccccc45)C(C)C3)n2)cc1 (centres unmarked) [Compound 41] | 54 | 0.53 (≈ 1.11 µM) | – | – |
| COc1ccccc1S(=O)(=O)N1CCN(c2nc(Cc3ccc(F)cc3)ns2)CC1 [Compound 195, 1-[2-methoxyphenylsulfonyl]-4-[3-(4-fluoro-benzyl)-1,2,4-thiadiazol-5-yl]piperazine] | 99 | 0.025 (≈ 0.0557 µM) | – | – |
| Fc1ccc(Cc2nsc(N3CCN(C/C=C/c4ccccc4)CC3)n2)cc1 [Compound 93, 1-[3-phenylprop-2-enyl]-4-[3-(4-fluorobenzyl)-1,2,4-thiadiazol-5-yl]piperazine] | 91 | 1.99 (≈ 5.04 µM) | – | – |
| CCCCc1ccc(C(=O)NCCN2CCN(c3nc(Cc4ccc(F)cc4)ns3)CC2)cc1 [Compound 95, 4-butyl-N-{2-[4-[3-(4-fluorobenzyl)-1,2,4-thiadiazol-5-yl]piperazin-1-yl]ethyl}benzamide] | 78 | 0.38 (≈ 0.789 µM) | – | – |
| Cc1ccc(Cc2nsc(N3CCN(C(=O)c4ccccc4)C(C)C3)n2)cc1 (centres unmarked) [Compound 169, 1-benzoyl-4-[3-(4-methylbenzyl)-1,2,4-thiadiazol-5-yl]-2-methylpiperazine] | 91 | – | – | – |
| COc1cccc(S(=O)(=O)N2CCN(c3nc(Cc4ccc(F)cc4)ns3)CC2)c1 [Compound 44, 1-[3-methoxyphenylsulfonyl]-4-[3-(4-fluorobenzyl)-1,2,4-thiadiazol-5-yl]piperazine] | 99 | 0.0571 (≈ 0.127 µM) | – | – |
| CC(=O)Nc1ccc(S(=O)(=O)N2CCN(c3nc(Cc4ccc(F)cc4)ns3)CC2C)cc1 (centres unmarked) [Compound 55, 1-[4-acetamidophenylsulfonyl]-4-[3-(4-fluorobenzyl)-1,2,4-thiadiazol-5-yl]-2-methylpiperazine] | 114 | 0.0781 (≈ 0.16 µM) | – | – |
| Fc1ccc(Cc2nsc(N3CCN(c4ccccc4F)CC3)n2)cc1 [Compound 187, 1-(2-fluorophenyl)-4-[3-(4-fluorobenzyl)-1,2,4-thiadiazol-5-yl]piperazine] | 83 | 2.81 (≈ 7.54 µM) | – | – |
| Cc1ccccc1C(=O)N1CCN(c2nc(Cc3ccc(F)cc3)ns2)CC1 [Compound 152, 1-(2-methylbenzoyl)-4-[3-(4-fluorobenzyl)-1,2,4-thiadiazol-5-yl]piperazine] | 66 | 1.15 (≈ 2.9 µM) | – | – |
| CC1CN(c2nc(Cc3ccc(F)cc3)ns2)CCN1C(=O)c1ccccc1 (centres unmarked) [Compound 126, 1-benzoyl-4-[3-(4-fluorobenzyl)-1,2,4-thiadiazol-5-yl]-2-methylpiperazine] | 63 | 0.21 (≈ 0.53 µM) | – | – |
| O=C(NCCN1CCN(c2nc(Cc3ccc(F)cc3)ns2)CC1)c1ccc(Cl)cc1 [Compound 97, 4-chloro-N-{2-[4-[3-(4-fluorobenzyl)-1,2,4-thiadiazol-5-yl]piperazin-1-yl]ethyl}benzamide] | 68 | 1.29 (≈ 2.8 µM) | – | – |
| COc1cccc(Cc2nsc(N3CCN(C(=O)c4ccccc4F)C(C)C3)n2)c1 (centres unmarked) [Compound 115, 1-(2-fluorobenzoyl)-4-[3-(3-methoxybenzyl)-1,2,4-thiadiazol-5-yl]-2-methylpiperazine] | 75 | 0.0361 (≈ 0.0846 µM) | – | – |
| Cc1ccc(Cc2nsc(N3CCN(S(=O)(=O)c4cccc(C(F)(F)F)c4)CC3)n2)cc1 [Compound 62, 1-[3-trifluoromethylphenylsulfonyl]-4-[3-(4-methylbenzyl)-1,2,4-thiadiazol-5-yl]piperazine] | 45 | – | – | – |
| COc1cccc(Cc2nsc(N3CCN(C(=O)c4ccc(C(C)(C)C)cc4)C(C)C3)n2)c1 (centres unmarked) [Compound 146, 1-(4-tert-butylbenzoyl)-4-[3-(3-methoxybenzyl)-1,2,4-thiadiazol-5-yl]-2-methylpiperazine] | 94 | 0.72 (≈ 1.55 µM) | – | – |
| CC1CN(c2nc(Cc3ccc(F)cc3)ns2)CCN1S(=O)(=O)c1ccc([N+](=O)[O-])cc1 (centres unmarked) [Compound 73, 1-[4-nitrophenylsulfonyl]-4-[3-(4-fluorobenzyl)-1,2,4-thiadiazol-5-yl]-2-methylpiperazine] | 33 | – | – | – |

| Compound | %I [%] | EC50 [µg/mL] | LDH activity in the medium (Figure 2, dose response in paraquat-treated M17-SYNwt cells) | EC50 (µg/mL) |
| --- | --- | --- | --- | --- |
| COc1ccc(S(=O)(=O)N2CCN(c3nc(Cc4ccc(Cl)cc4)ns3)CC2C)cc1 (centres unmarked) [Compound 51, 1-[4-methoxyphenylsulfonyl]-4-[3-(4-chlorobenzyl)-1,2,4-thiadiazol-5-yl]-2-methylpiperazine] | 94 | 0.00135 (≈ 0.00281 µM) | – | – |
| COc1cccc(Cc2nsc(N3CCN(C(=O)c4ccc(F)cc4)C(C)C3)n2)c1 (centres unmarked) [Compound 123, 1-(4-fluorobenzoyl)-4-[3-(3-methoxybenzyl)-1,2,4-thiadiazol-5-yl]-2-methylpiperazine] | 95 | 0.14 (≈ 0.328 µM) | – | – |
| 2-phenyl-N-{2-[4-[3-(4-fluorobenzyl)-1,2,4-thiadiazol-5-yl]piperazin-1-yl]ethyl}butanamide [Compound 111] | 79 | – | able, in a dose-dependent manner, to reduce LDH activity in the medium | 1,79 µg/mL |
| COc1cccc(Cc2nsc(N3CCN(C(=O)c4ccc5c(c4)OCO5)C(C)C3)n2)c1 (centres unmarked) [Compound 119, 1-(1,3-benzodioxol-5-ylcarbonyl)-4-[3-(3-methoxybenzyl)-1,2,4-thiadiazol-5-yl]-2-methylpiperazine] | 72 | 0.095 (≈ 0.21 µM) | – | – |
| Cc1ccc(C(=O)N2CCN(c3nc(Cc4ccc(F)cc4)ns3)CC2)cc1 [Compound 141, 1-(4-methylbenzoyl)-4-[3-(4-fluorobenzyl)-1,2,4-thiadiazol-5-yl]piperazine] | 75 | 0.49 (≈ 1.24 µM) | – | – |
| 1-(phenylprop-2-ensulfonyl)-4-[3-(4-fluorobenzyl)-1,2,4-thiadiazol-5-yl]piperazine [Compound 78] | 75 | – | – | 0,13 µg/mL |
| Cc1ccc(Cc2nsc(N3CCN(S(=O)(=O)Cc4ccccc4)CC3)n2)cc1 [Compound 77, 1-(benzylsulfonyl)-4-[3-(4-methylbenzyl)-1,2,4-thiadiazol-5-yl]piperazine] | 81 | – | – | – |
| CC1CN(c2nc(Cc3ccc(F)cc3)ns2)CCN1C(=O)Nc1cccc2ccccc12 (centres unmarked) [Compound 25, N-1-naphtyl-4-[3-(4-fluorobenzyl)-1,2,4-thiadiazol-5-yl]-2-methylpiperazine-1-carboxamide] | 97 | 1.69 (≈ 3.66 µM) | – | – |
| CC1CN(c2nc(Cc3ccc(F)cc3)ns2)CCN1C(=O)Cc1ccc(F)cc1 (centres unmarked) [Compound 6, 1-(4-fluorophenylacetyl)-4-[3-(4-fluorobenzyl)-1,2,4-thiadiazol-5-yl]-2-methylpiperazine] | 75 | – | – | – |
| Cc1ccc(C(=O)NCCN2CCN(c3nc(Cc4ccc(F)cc4)ns3)CC2)cc1 [Compound 101, 4-methyl-N-{2-[4-[3-(4-fluorobenzyl)-1,2,4-thiadiazol-5-yl]piperazin-1-yl]ethyl}benzamide] | 68 | 1.94 (≈ 4.41 µM) | – | – |
| O=C(c1cccc(F)c1)N1CCN(c2nc(Cc3ccc(Cl)cc3)ns2)CC1 [Compound 157, 1-(3-fluorobenzoyl)-4-[3-(4-chlorobenzyl)-1,2,4-thiadiazol-5-yl]piperazine] | 70 | 1.7 (≈ 4.08 µM) | – | – |
| O=S(=O)(c1ccc(F)cc1)N1CCN(c2nc(Cc3ccc(Cl)cc3)ns2)CC1 [Compound 33, 1-[4-fluorophenylsulfonyl]-4-[3-(4-chlorobenzyl)-1,2,4-thiadiazol-5-yl]piperazine] | 53 | 0.00282 (≈ 0.00622 µM) | – | – |
| Cc1ccc(Cc2nsc(N3CCN(C(=O)c4ccc(F)cc4)CC3)n2)cc1 [Compound 160, 1-(4-fluorobenzoyl)-4-[3-(4-methylbenzyl)-1,2,4-thiadiazol-5-yl]piperazine] | 88 | 2.87 (≈ 7.24 µM) | – | – |
| CC1CN(c2nc(Cc3ccc(F)cc3)ns2)CCN1C(=O)/C=C/c1ccccc1 (centres unmarked) [Compound 87, 1-[(2E)-3-phenylprop-2-enoyl]-4-B103-2-methylpiperazine] | 94 | 2.49 (≈ 5.89 µM) | – | – |
| Cc1ccc(NC(=O)N2CCN(c3nc(Cc4ccc(F)cc4)ns3)CC2C)c(C)c1 (centres unmarked) [Compound 20, N-(2,4-dimethylphenyl)-4-[3-(4-fluorobenzyl)-1,2,4-thiadiazol-5-yl]-2-methylpiperazine-1-carboxamide] | 106 | 0.76 (≈ 1.73 µM) | – | – |
| CCc1ccc(C(=O)N2CCN(c3nc(Cc4ccc(F)cc4)ns3)CC2C)cc1 (centres unmarked) [Compound 116, 1-(4-ethylbenzoyl)-4-[3-(4-fluorobenzyl)-1,2,4-thiadiazol-5-yl]-2-methylpiperazine] | 71 | 0.0522 (≈ 0.123 µM) | – | – |
| COc1ccc(NC(=O)N2CCN(c3nc(Cc4ccc(F)cc4)ns3)CC2)c(OC)c1 [Compound 27, N-(2,4-dimethoxyphenyl)-4-[3-(4-fluorobenzyl)-1,2,4-thiadiazol-5-yl]piperazine-1-carboxamide] | 67 | – | – | – |
